# Source: ChEMBL document CHEMBL6182854, “Design, synthesis and biological evaluation of WEE1 degraders via HSP90-mediated targeting chimeras for target therapy of acute myeloid leukemia” (Eur J Med Chem, 2025)
# pIC50: −log10 of the molar value. The source made the active and inactive calls. No cut-off for these calls is given here.
# Experiments:
# MV4-11 [1] = experiment: Induction of cell cycle arrest in human MV4-11 cells assessed as accumulation of cells at G2/M phase incubated for 72 hrs by PI staining based flow cytometry; format: functional; conditions: dose 30.0 µM
# MV4-11 [2] = experiment: Antiproliferative activity against human MV4-11 cells assessed as cell viability incubated for 72 hrs by CCK-8 assay; format: functional, cell-based; conditions: MV4-11, 72 h
# [3] = Toxicity in female NOD/SCID mouse xenografted with patient derived human Primary acute myeloid leukemic cell assessed as liver damage at 10 mg/kg administered via tail vein by H and E staining based optical microscopic analysis; format: organism-based; conditions: in vivo, iv
# [4] = tested on: Primary acute myeloid leukemic cell; experiment: Antitumor activity against patient derived human Primary acute myeloid leukemic cell xenografted in female NOD/SCID mouse assessed as reduction in splenomegaly at 10 mg/kg administered via tail vein and measured after 4 weeks; format: functional, organism-based
# [5] = Toxicity in female NOD/SCID mouse xenografted with patient derived human Primary acute myeloid leukemic cell assessed as lung damage at 3 mg/kg administered via tail vein by H and E staining based optical microscopic analysis; format: organism-based; conditions: in vivo, iv
# MV4-11 [6] = experiment: HEMTAC activity at HSP90/WEE1 in human MV4-11 cells assessed as induction of WEE1 degradation at 0.1 uM incubated for 12 hrs by Western blotting analysis; format: cell-based
# [7] = Toxicity in male BALB/C mouse assessed as myelosuppression by measuring platelet level at 10 mg/kg administered via tail vein and measured on day 3; format: organism-based; conditions: in vivo, iv, 72 h, time 3 day
# MV4-11 [8] = experiment: HEMTAC activity against HSP90/AKT in human MV4-11 cells assessed as induction of AKT degradation at 0.1 uM incubated for 12 hrs by Western blotting analysis; format: cell-based
# MV4-11 [9] = experiment: Upregulation of WEE1 mRNA expression in human MV4-11 cells incubated for 12 hrs by qRT-PCR analysis; format: functional, cell-based; conditions: dose 1-10 µM
# [10] = Cytotoxicity against human PBMC cells assessed as reduction in cell viability up to 1000 nM incubated for 72 hrs by CCK-8 assay; format: toxicity, cell-based; conditions: 1 µM
# [11] = Toxicity in female NOD/SCID mouse xenografted with patient derived human Primary acute myeloid leukemic cell assessed as lung damage at 10 mg/kg administered via tail vein by H and E staining based optical microscopic analysis; format: organism-based; conditions: in vivo, iv
# [12] = Toxicity in female NOD/SCID mouse xenografted with patient derived human Primary acute myeloid leukemic cell assessed as increase in body weight at 10 mg/kg administered via tail vein and measured after 4 weeks; format: organism-based; conditions: in vivo, iv, 672 h
# [13] = tested on: Primary acute myeloid leukemic cell; experiment: Antitumor activity against patient derived human Primary acute myeloid leukemic cell xenografted in female NOD/SCID mouse assessed as decrease in huCD45+ cells in spleen at 10 mg/kg administered via tail vein and measured after 4 weeks by flow cytometric analysis; format: functional, organism-based
# [14] = target: Heat shock protein HSP 90-alpha (Homo sapiens, UniProt P07900); experiment: Inhibition of N-terminal HSP90alpha (unknown origin) ATPase activity incubated for 3 hrs by fluorescence polarization assay
# [15] = Antitumor activity against patient derived human Primary acute myeloid leukemic cell xenografted in female NOD/SCID mouse assessed as decrease in huCD45+ cells in bone marrow at 10 mg/kg administered via tail vein and measured after 4 weeks by flow cytometric analysis relative to control; format: functional; parameters: scale not given: the % may be the effect or the level left
# [16] = Toxicity in female NOD/SCID mouse xenografted with patient derived human Primary acute myeloid leukemic cell assessed as heart damage at 10 mg/kg administered via tail vein by H and E staining based optical microscopic analysis; format: organism-based; conditions: in vivo, iv
# MV4-11 [17] = experiment: HEMTAC activity against HSP90/WEE1 in human MV4-11 cells assessed as induction of WEE1 degradation at 10 uM incubated for 12 hrs by Western blotting analysis; format: cell-based
# [18] = Toxicity in female NOD/SCID mouse xenografted with patient derived human Primary acute myeloid leukemic cell assessed as spleen damage at 10 mg/kg administered via tail vein by H and E staining based optical microscopic analysis; format: organism-based; conditions: in vivo, iv
# [19] = target: Cyclin-dependent kinase 1 (Homo sapiens) (UniProt P06493); experiment: Inhibition of CDK1 phosphorylation in human MV4-11 cells; format: cell-based
# MV4-11 [20] = experiment: Induction of cell cycle arrest in human MV4-11 cells assessed as accumulation of cells at G2/M phase at 30 nM incubated for 72 hrs by PI staining based flow cytometry; format: functional
# [21] = Antiproliferative activity against patient derived human Primary acute myeloid leukemic cell assessed as inhibition of cell growth incubated for 72 hrs by CCK-8 assay; format: functional, cell-based
# [22] = tested on: Primary acute myeloid leukemic cell; experiment: Antitumor activity against patient derived human Primary acute myeloid leukemic cell xenografted in female NOD/SCID mouse assessed as decrease in huCD45+ cells in bone marrow at 5 mg/kg administered via tail vein and measured after 4 weeks in presence of AZD1775 by flow cytometric analysis; format: functional, organism-based
# [23] = tested on: Primary acute myeloid leukemic cell; experiment: Antitumor activity against patient derived human Primary acute myeloid leukemic cell xenografted in female NOD/SCID mouse assessed as decrease in huCD45+ cells in bone marrow at 5 mg/kg administered via tail vein and measured after 4 weeks by flow cytometric analysis; format: functional, organism-based
# [24] = tested on: Primary acute myeloid leukemic cell; experiment: Antitumor activity against patient derived human Primary acute myeloid leukemic cell xenografted in female NOD/SCID mouse assessed as decrease in huCD45+ cells in bone marrow at 3 mg/kg administered via tail vein in presence of AZD1775 and measured after 4 weeks by flow cytometric analysis; format: functional, organism-based
# [25] = Toxicity in female NOD/SCID mouse xenografted with patient derived human Primary acute myeloid leukemic cell assessed as spleen damage at 3 mg/kg administered via tail vein by H and E staining based optical microscopic analysis; format: organism-based; conditions: in vivo, iv
# [26] = Toxicity in female NOD/SCID mouse xenografted with patient derived human Primary acute myeloid leukemic cell assessed as heart damage at 3 mg/kg administered via tail vein by H and E staining based optical microscopic analysis; format: organism-based; conditions: in vivo, iv
# [27] = Toxicity in female NOD/SCID mouse xenografted with patient derived human Primary acute myeloid leukemic cell assessed as liver damage at 3 mg/kg administered via tail vein by H and E staining based optical microscopic analysis; format: organism-based; conditions: in vivo, iv
# [28] = Toxicity in female NOD/SCID mouse xenografted with patient derived human Primary acute myeloid leukemic cell assessed as increase in body weight at 3 mg/kg administered via tail vein and measured after 4 weeks; format: organism-based; conditions: in vivo, iv, 672 h
# [29] = Toxicity in male BALB/C mouse assessed as myelosuppression by measuring leukocytes level at 10 mg/kg administered via tail vein and measured on day 3; format: organism-based; conditions: in vivo, iv, 72 h, time 3 day
# [30] = tested on: Primary acute myeloid leukemic cell; experiment: Antitumor activity against patient derived human Primary acute myeloid leukemic cell xenografted in female NOD/SCID mouse assessed as decrease in huCD45+ cells in spleen at 3 mg/kg administered via tail vein and measured after 4 weeks by flow cytometric analysis; format: functional, organism-based
# [31] = tested on: Primary acute myeloid leukemic cell; experiment: Antitumor activity against patient derived human Primary acute myeloid leukemic cell xenografted in female NOD/SCID mouse assessed as reduction in splenomegaly at 3 mg/kg administered via tail vein and measured after 4 weeks; format: functional, organism-based
# [32] = Toxicity in male BALB/C mouse assessed as myelosuppression by measuring neutrophil level at 10 mg/kg administered via tail vein and measured on day 3; format: organism-based; conditions: in vivo, iv, 72 h, time 3 day
# [33] = Toxicity in female NOD/SCID mouse xenografted with patient derived human Primary acute myeloid leukemic cell assessed as kidney damage at 10 mg/kg administered via tail vein by H and E staining based optical microscopic analysis; format: organism-based; conditions: in vivo, iv
# [34] = tested on: Primary acute myeloid leukemic cell; experiment: Antitumor activity against patient derived human Primary acute myeloid leukemic cell xenografted in female NOD/SCID mouse assessed as decrease in huCD45+ cells in bone marrow at 3 mg/kg administered via tail vein in presence of STA9090 and measured after 4 weeks by flow cytometric analysis; format: functional, organism-based
# MV4-11 [35] = experiment: Induction of cell cycle arrest in human MV4-11 cells assessed as accumulation of cells at G2/M phase at 100 nM incubated for 72 hrs by PI staining based flow cytometry; format: functional
# [36] = tested on: Primary acute myeloid leukemic cell; experiment: Antitumor activity against patient derived human Primary acute myeloid leukemic cell xenografted in female NOD/SCID mouse assessed as decrease in huCD45+ cells in bone marrow at 5 mg/kg administered via tail vein and measured after 4 weeks in presence of STA9090 by flow cytometric analysis; format: functional, organism-based
# Sequence of Cyclin-dependent kinase 1 (Homo sapiens) (P06493 whole entry, looked up): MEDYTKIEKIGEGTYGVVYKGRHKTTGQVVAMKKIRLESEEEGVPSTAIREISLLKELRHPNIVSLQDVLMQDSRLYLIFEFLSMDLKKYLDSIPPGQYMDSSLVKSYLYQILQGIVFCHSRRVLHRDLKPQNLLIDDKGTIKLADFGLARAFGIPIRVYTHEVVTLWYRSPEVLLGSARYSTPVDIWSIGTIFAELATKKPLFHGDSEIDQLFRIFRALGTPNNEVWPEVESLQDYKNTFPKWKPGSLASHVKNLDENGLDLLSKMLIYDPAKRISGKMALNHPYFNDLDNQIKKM
structure (smiles),measurement,setting,value
CCNC(=O)c1noc(-c2cc(C(C)C)c(O)cc2O)c1-c1ccc(CN2CCOCC2)cc1 [LUMINESPIB],Activity,MV4-11 [1],Active
same,pIC50,MV4-11 [2],8.70
C=CCn1c(=O)c2cnc(Nc3ccc(N4CCN(CCCNC(=O)c5noc(-c6cc(C(C)C)c(O)cc6O)c5-c5ccc(CN6CCOCC6)cc5)CC4)cc3)nc2n1-c1cccc(C(C)(C)O)n1,Activity,[3],Non-toxic
same,Activity,[4],Active
same,Activity,[5],Non-toxic
same,Activity,MV4-11 [1],Dose-dependent-effect
same,Activity,MV4-11 [6],Active
same,Activity,[7],Non-toxic
same,Activity,MV4-11 [8],Minimal_effect
same,Activity,MV4-11 [9],Active
same,pIC50,MV4-11 [2],8.10
same,Activity,[10],Non-toxic
same,Activity,[11],Non-toxic
same,Activity,[12],Non-toxic
same,Activity,[13],Active
same,pIC50,[14],7.86
same,Activity,[15],>70%
same,Activity,[16],Non-toxic
same,Activity,MV4-11 [17],Active
same,Activity,[18],Non-toxic
same,inhibition,[19],Active
same,Activity,MV4-11 [20],Active
same,pIC50,[21],7.39
C=CCn1c(=O)c2cnc(Nc3ccc(N4CCN(CCCCNC(=O)c5noc(-c6cc(C(C)C)c(O)cc6O)c5-c5ccc(CN6CCOCC6)cc5)CC4)cc3)nc2n1-c1cccc(C(C)(C)O)n1,pIC50,MV4-11 [2],7.35
same,Activity,MV4-11 [17],Active
C=CCn1c(=O)c2cnc(Nc3ccc(N4CCN(CCCCNC(=O)CCC(=O)Nc5ccc6c(c5)CCN6C(=O)c5cc(C(C)C)c(O)cc5O)CC4)cc3)nc2n1-c1cccc(C(C)(C)O)n1,pIC50,MV4-11 [2],6.82
same,Activity,MV4-11 [17],Active
C=CCn1c(=O)c2cnc(Nc3ccc(N4CCN(CCCCCNC(=O)CN5CCN(Cc6ccc(-n7c(C(=O)NCC)nnc7-c7cc(C(C)C)c(O)cc7O)cc6)CC5)CC4)cc3)nc2n1-c1cccc(C(C)(C)O)n1,pIC50,MV4-11 [2],8.02
same,Activity,MV4-11 [17],Active
C=CCn1c(=O)c2cnc(Nc3ccc(N4CCN(CCCCCNC(=O)c5noc(-c6cc(C(C)C)c(O)cc6O)c5-c5ccc(CN6CCOCC6)cc5)CC4)cc3)nc2n1-c1cccc(C(C)(C)O)n1,pIC50,MV4-11 [2],7.62
same,Activity,MV4-11 [17],Active
C=CCn1c(=O)c2cnc(Nc3ccc(N4CCN(CCNC(=O)c5noc(-c6cc(C(C)C)c(O)cc6O)c5-c5ccc(CN6CCOCC6)cc5)CC4)cc3)nc2n1-c1cccc(C(C)(C)O)n1,pIC50,MV4-11 [2],7.00
same,Activity,MV4-11 [17],Active
C=CCn1c(=O)c2cnc(Nc3ccc(N4CCN(CCNC(=O)CN5CCN(Cc6ccc(-n7c(C(=O)NCC)nnc7-c7cc(C(C)C)c(O)cc7O)cc6)CC5)CC4)cc3)nc2n1-c1cccc(C(C)(C)O)n1,pIC50,MV4-11 [2],7.88
same,Activity,MV4-11 [17],Active
CC(C)c1cc(C(=O)N2Cc3ccc(CN4CCN(C)CC4)cc3C2)c(O)cc1O [ONALESPIB],pIC50,MV4-11 [2],8.21
same,pIC50,[14],8.00
CC(C)c1cc(-c2n[nH]c(=O)n2-c2ccc3c(ccn3C)c2)c(O)cc1O [GANETESPIB],Activity,[22],inactive
same,Activity,[23],inactive
same,Activity,MV4-11 [1],Active
same,pIC50,MV4-11 [2],8.82
same,Activity,[24],inactive
C=CCn1c(=O)c2cnc(Nc3ccc(N4CCN(CCCNC(=O)CCC(=O)Nc5ccc6c(c5)CCN6C(=O)c5cc(C(C)C)c(O)cc5O)CC4)cc3)nc2n1-c1cccc(C(C)(C)O)n1,pIC50,MV4-11 [2],7.32
same,pIC50,[14],7.73
same,Activity,MV4-11 [17],Active
C=CCn1c(=O)c2cnc(Nc3ccc(N4CCN(CCCCNC(=O)CN5CCN(Cc6ccc(-n7c(C(=O)NCC)nnc7-c7cc(C(C)C)c(O)cc7O)cc6)CC5)CC4)cc3)nc2n1-c1cccc(C(C)(C)O)n1,Activity,[25],Non-toxic
same,Activity,[5],Non-toxic
same,Activity,[26],Non-toxic
same,Activity,MV4-11 [1],Dose-dependent-effect
same,Activity,MV4-11 [6],Active
same,Activity,[7],Non-toxic
same,Activity,MV4-11 [8],Minimal_effect
same,Activity,MV4-11 [9],Active
same,Activity,[10],Non-toxic
same,Activity,[27],Non-toxic
same,Activity,[28],Non-toxic
same,Activity,[29],Non-toxic
same,pIC50,[14],7.78
same,Activity,[30],Active
same,Activity,[31],Active
same,Activity,MV4-11 [17],Active
same,inhibition,[19],Active
same,Activity,MV4-11 [20],Active
same,Activity,[32],Non-toxic
same,Activity,[33],Non-toxic
C=CCn1c(=O)c2cnc(Nc3ccc(N4CCN(CCCCCNC(=O)CCC(=O)Nc5ccc6c(c5)CCN6C(=O)c5cc(C(C)C)c(O)cc5O)CC4)cc3)nc2n1-c1cccc(C(C)(C)O)n1,pIC50,MV4-11 [2],7.42
same,Activity,MV4-11 [17],Active
C=CCn1c(=O)c2cnc(Nc3ccc(N4CCN(CCNC(=O)CCC(=O)Nc5ccc6c(c5)CCN6C(=O)c5cc(C(C)C)c(O)cc5O)CC4)cc3)nc2n1-c1cccc(C(C)(C)O)n1,pIC50,MV4-11 [2],7.88
same,Activity,MV4-11 [17],Active
C=CCn1c(=O)c2cnc(Nc3ccc(N4CCN(C)CC4)cc3)nc2n1-c1cccc(C(C)(C)O)n1 [ADAVOSERTIB],Activity,[23],inactive
same,Activity,MV4-11 [9],inactive
same,Activity,[34],inactive
same,pIC50,MV4-11 [2],7.17
same,Activity,MV4-11 [17],inactive
same,Activity,MV4-11 [35],Active
same,Activity,[36],inactive
